# Source: US9856279B2 (AGIOS PHARMACEUTICALS, INC, priority 2011, dated 2018)
# Assays:
# [1] = tested on: HT1080 cells; assay: Cellular assay for IDH1m inhibitors: inhibition of 2-HG production (LC-MS, 48 hours) in HT1080 cells; type: cell-based; details: Homo sapiens, HT-1080; inhibition of 2-HG production, HT1080 cells; read-out: HT1080 IC50
# Method in brief: (§1)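 Inhibition of 2-HG production was assessed in cells seeded at 5000/well and exposed to compound for 48 h (final DMSO 0.2%). Supernatant 2-HG was analysed by LC-MS.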
# [2] = target: IDH1 R132H (Homo sapiens, UniProt O75874, R132H); assay: Assay for IDH1 R132H inhibitors (NADPH/aKG, resazurin detection); type: biochemical; details: enzyme assay of Example 12; read-out: IDH1R132H IC50
# IDH1 R132H, sequence (O75874 whole entry R132H): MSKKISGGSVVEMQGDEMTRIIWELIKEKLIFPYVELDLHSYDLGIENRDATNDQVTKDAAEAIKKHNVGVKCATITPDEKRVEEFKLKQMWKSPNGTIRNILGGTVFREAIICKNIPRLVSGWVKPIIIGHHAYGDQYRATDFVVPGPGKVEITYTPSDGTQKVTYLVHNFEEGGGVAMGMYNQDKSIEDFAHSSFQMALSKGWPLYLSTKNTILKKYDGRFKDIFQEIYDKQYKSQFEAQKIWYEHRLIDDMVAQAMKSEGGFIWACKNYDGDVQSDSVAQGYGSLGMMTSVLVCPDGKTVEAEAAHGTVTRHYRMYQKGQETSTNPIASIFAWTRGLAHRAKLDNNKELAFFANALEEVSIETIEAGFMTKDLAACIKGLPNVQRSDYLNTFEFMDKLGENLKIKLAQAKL
# Method in brief: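 Read-out is resorufin fluorescence (Ex544/Em590) 5 min after adding a 30 μM resazurin detection mix. Before that, mutant enzyme (0.2 μg/ml in its mix) ran 50 min at room temperature with compound, 8 uM NADPH and 2 mM aKG (mix levels) in Tris pH 7.5 with NaCl, MgCl2, BSA.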
# [3] = tested on: U87MG cells; assay: Cellular assay for IDH1m inhibitors: inhibition of 2-HG production (LC-MS, 48 hours) in U87MG cells; type: cell-based; details: Homo sapiens, U-87 MG, inhibition of 2-HG production, U87R132H cells; read-out: U87R132H IC50
# Method in brief: as §1
IC50 [1],IC50 [2],IC50 [3],SMILES
< 500 nM,< 500 nM,< 500 nM,"C=CC(=O)N1CCC=C(c2cc(C#N)c(N3CCN(C(=O)CCO)[C@H](C4CC4)C3)nc2C2CC2)C1 [Compound 727, (R)-5-(1-acryloyl-1,2,5,6-tetrahydropyridin-3-yl)-6-cyclopropyl-2-(3-cyclopropyl-4-(3-hydroxypropanoyl)piperazin-1-yl)nicotinonitrile]"
< 500 nM,< 500 nM,< 500 nM,"C=Cc1cc(Nc2cc(C#N)c(N3CCN(C(=O)CCOC)[C@H](C)C3)nc2C2CC2)c2cccnc2n1 [Compound 705, (R)-6-cyclopropyl-2-(4-(3-methoxypropanoyl)-3-methylpiperazin-1-yl)-5-(2-vinyl-1,8-naphthyridin-4-ylamino)nicotinonitrile]"
1000 to 10000 nM,500 to 1000 nM,1000 to 10000 nM,"C/C=C/C(=O)Nc1cccc(COc2cc(C#N)c(N3CCN(C(=O)CCOC)[C@H](C)C3)nc2C2CC2)c1 [Compound 400, (R,E)-N-(3-((5-cyano-2-cyclopropyl-6-(4-(3-methoxypropanoyl)-3-methylpiperazin-1-yl)pyridin-3-yloxy)methyl)phenyl)but-2-enamide]"
< 500 nM,< 500 nM,< 500 nM,"C=CC(=O)N1CCC=C(c2c(C3CC3)nc(N3CCN(C(=O)CCOC)[C@H](C4CC4)C3)c(C#N)c2C)C1 [Compound 745, (R)-5-(1-acryloyl-1,2,5,6-tetrahydropyridin-3-yl)-6-cyclopropyl-2-(3-cyclopropyl-4-(3-methoxypropanoyl)piperazin-1-yl)-4-methylnicotinonitrile]"
< 500 nM,< 500 nM,< 500 nM,"C=Cc1cc(Nc2cc(C#N)c(N3CCN(C(=O)CCO)[C@H](C)C3)nc2C2CC2)ncn1 [Compound 617, (R)-6-cyclopropyl-2-(4-(3-hydroxypropanoyl)-3-methylpiperazin-1-yl)-5-(6-vinylpyrimidin-4-ylamino)nicotinonitrile]"
1000 to 10000 nM,< 500 nM,500 to 1000 nM,"COCCC(=O)N1CCN(c2nc(C3CC3)c(-c3cccc4cc[nH]c34)cc2C#N)C[C@H]1C [Compound 373, (R)-6-cyclopropyl-5-(1H-indol-7-yl)-2-[4-(3-methoxy-propionyl)-3-methyl-piperazin-1-yl]-nicotinonitrile]"
1000 to 10000 nM,< 500 nM,500 to 1000 nM,"COCCC(=O)N1CCN(c2nc(C3CC3)c(-c3cnnc(OS(=O)(=O)C(F)(F)F)c3)cc2C#N)C[C@H]1C1CC1 [Compound 675, (R)-5-(5-cyano-2-cyclopropyl-6-(3-cyclopropyl-4-(3-methoxypropanoyl)piperazin-1-yl)pyridin-3-yl)pyridazin-3-yl trifluoromethanesulfonate]"
1000 to 10000 nM,< 500 nM,500 to 1000 nM,"CCOC(=O)N1CCN(c2cc(C#N)c(N3CCN(C(=O)CCOC)[C@H](C)C3)nc2C2CC2)CC1 [Compound 376, (R)-ethyl 4-(5-cyano-2-cyclopropyl-6-(4-(3-methoxypropanoyl)-3-methylpiperazin-1-yl)pyridin-3-yl)piperazine-1-carboxylate]"
< 500 nM,< 500 nM,< 500 nM,"C=Cc1cc(-c2cc(C#N)c(N3CCN(C(=O)C[C@H]4CCO4)[C@H](C4CC4)C3)nc2C2CC2)ccn1 [Compound 752, 2-cyclopropyl-6-((R)-3-cyclopropyl-4-(2-((R)-oxetan-2-yl)acetyl)piperazin-1-yl)-2′-vinyl-3,4′-bipyridine-5-carbonitrile]"
< 500 nM,< 500 nM,< 500 nM,"C=Cc1cc(-c2cc(C#N)c(N3CCN(C(=O)CCO)[C@H](C)C3)nc2C2CC2)c2ccncc2n1 [Compound 609, (R)-6-cyclopropyl-2-(4-(3-hydroxypropanoyl)-3-methylpiperazin-1-yl)-5-(2-vinyl-1,7-naphthyridin-4-yl)nicotinonitrile]"
< 500 nM,< 500 nM,< 500 nM,"COCCC(=O)N1CCN(c2nc(C3CC3)c(-c3cccc(N4CC=CC4=O)c3)cc2C#N)C[C@H]1C [Compound 459, (R)-6-cyclopropyl-2-(4-(3-methoxypropanoyl)-3-methylpiperazin-1-yl)-5-(3-(2-oxo-2,5-dihydro-1H-pyrrol-1-yl)phenyl)nicotinonitrile]"
< 500 nM,< 500 nM,< 500 nM,"C=Cc1cc(-c2c(C3CC3)nc(N3CCN(C(=O)CCO)[C@H](C4CC4)C3)c(C#N)c2C)ccn1 [Compound 589, (R)-2-cyclopropyl-6-(3-cyclopropyl-4-(3-hydroxypropanoyl)piperazin-1-yl)-4-methyl-2′-vinyl-3,4′-bipyridine-5-carbonitrile]"
500 to 1000 nM,< 500 nM,500 to 1000 nM,"COCCC(=O)N1CCN(c2nc(C3CC3)c(-c3ccc(NS(C)(=O)=O)cc3)c(C)c2C#N)C[C@H]1C [Compound 380, (R)—N-(4-{5-cyano-2-cyclopropyl-6-[4-(3-methoxy-propionyl)-3-methyl-piperazin-1-yl]-4-methyl-pyridin-3-yl}-phenyl)-methane sulfonamide]"
< 500 nM,< 500 nM,< 500 nM,"C=Cc1cc(Nc2cc(C#N)c(N3CCN(C(=O)CCO)[C@H](C4CC4)C3)nc2C2CC2)c2ccncc2n1 [Compound 722, (R)-6-cyclopropyl-2-(3-cyclopropyl-4-(3-hydroxypropanoyl)piperazin-1-yl)-5-((2-vinyl-1,7-naphthyridin-4-yl)amino)nicotinonitrile]"
1000 to 10000 nM,< 500 nM,500 to 1000 nM,"COCCC(=O)N1CCN(c2nc(C3CC3)c(-c3cccc(NS(C)(=O)=O)c3)c(C)c2C#N)C[C@H]1C [Compound 350, (R)—N-(3-{5-cyano-2-cyclopropyl-6-[4-(3-methoxy-propionyl)-3-methyl-piperazin-1-yl]-4-methyl-pyridin-3-yl}-phenyl)-methane sulfonamide]"
< 500 nM,< 500 nM,< 500 nM,"C=Cc1cc(-c2cc(C#N)c(N3CCN(C(=O)CCCOC)[C@H](C4CC4)C3)nc2C2CC2)ccn1 [Compound 747, (R)-2-cyclopropyl-6-(3-cyclopropyl-4-(4-methoxybutanoyl)piperazin-1-yl)-2′-vinyl-3,4′-bipyridine-5-carbonitrile]"
1000 to 10000 nM,< 500 nM,1000 to 10000 nM,"COCCC(=O)N1CCN(c2nc(C3CC3)c(-c3cccc(F)c3)c(C)c2C#N)C[C@H]1C [Compound 265, (R)-6-cyclopropyl-5-(3-fluorophenyl)-2-(4-(3-methoxypropanoyl)-3-methylpiperazin-1-yl)-4-methylnicotinonitrile]"
1000 to 10000 nM,< 500 nM,500 to 1000 nM,"N#Cc1cc(-c2ccc3ncoc3c2)c(C2CC2)nc1N1CCN(C(=O)C2CC2)[C@H](C2CC2)C1 [Compound 466, (R)-5-(benzo[d]oxazol-6-yl)-2-(4-(cyclopropanecarbonyl)-3-cyclopropylpiperazin-1-yl)-6-cyclopropylnicotinonitrile]"
500 to 1000 nM,< 500 nM,500 to 1000 nM,"COCCC(=O)N1CCN(c2nc(C3CC3)c(OCc3ccncc3)cc2C#N)C[C@H]1C [Compound 309, (R)-6-cyclopropyl-2-(4-(3-methoxypropanoyl)-3-methylpiperazin-1-yl)-5-(pyridin-4-ylmethoxy)nicotinonitrile]"
< 500 nM,< 500 nM,< 500 nM,"C=CC(=O)Nc1cccc(-c2cc(C#N)c(N3CCN(C(=O)CCOC)[C@H](C)C3)nc2C2CC2)c1 [Compound 343, (R)—N-(3-(5-cyano-2-cyclopropyl-6-(4-(3-methoxypropanoyl)-3-methylpiperazin-1-yl)pyridin-3-yl)phenyl)acrylamide]"
< 500 nM,< 500 nM,< 500 nM,"C=Cc1cc(-c2cc(C#N)c(N3CCN(C(=O)CCOC)[C@H](C4CC4)C3)nc2C2CC2)ncn1 [Compound 638, (R)-6-cyclopropyl-2-(3-cyclopropyl-4-(3-methoxypropanoyl)piperazin-1-yl)-5-(6-vinylpyrimidin-4-yl)nicotinonitrile]"
1000 to 10000 nM,< 500 nM,1000 to 10000 nM,"COCCC(=O)N1CCN(c2nc(C3CC3)c(OC(C)c3ccccc3)cc2C#N)C[C@H]1C (stereo partly drawn) [Compound 277, 6-cyclopropyl-2-((R)-4-(3-methoxypropanoyl)-3-methylpiperazin-1-yl)-5-(1-phenylethoxy)nicotinonitrile]"
1000 to 10000 nM,< 500 nM,500 to 1000 nM,"COCCC(=O)N1CCN(c2nc(C3CC3)c(-c3ccc4oc(=O)[nH]c4c3)cc2C#N)C[C@H]1C [Compound 473, (R)-6-cyclopropyl-2-[4-(3-methoxy-propionyl)-3-methyl-piperazin-1-yl]-5-(2-oxo-2,3-dihydro-benzooxazol-5-yl)-nicotinonitrile]"
< 500 nM,< 500 nM,500 to 1000 nM,"C=Cc1cc(-c2cc(C#N)c(N3CCN(C(=O)CCO)[C@H](C)C3)nc2C2CC2)ncn1 [Compound 621, (R)-6-cyclopropyl-2-(4-(3-hydroxypropanoyl)-3-methylpiperazin-1-yl)-5-(6-vinylpyrimidin-4-yl)nicotinonitrile]"
1000 to 10000 nM,500 to 1000 nM,1000 to 10000 nM,"COCCC(=O)N1CCN(c2nc(C3CC3)c(-c3cccc(NC(=O)[C@H](C)Cl)c3)cc2C#N)C[C@H]1C [Compound 447, (S)-2-chloro-N-(3-(5-cyano-2-cyclopropyl-6-((R)-4-(3-methoxypropanoyl)-3-methylpiperazin-1-yl)pyridin-3-yl)phenyl)propanamide]"
